tested on: antigen-specific cellular immunity (IFN-γ-producing spleen cells); test: Mouse immunization test 1 (tape preparation), ELISPOT; assay type: in vivo, genetically modified mouse (HLA-A*0201 type MHC); settings: acid added to WT1 peptide tape preparation (Table 1)
Description: Mouse immunization test was performed with the tape preparations using a model animal for immunological evaluation. Evaluation of the immunity induction level was performed by the ELISPOT method. Specifically, the hair of the back of the mouse was cut. The mouse was kept until it recovered from the skin damage due to the hair cutting. After that, a sample was applied to the back of the mouse for the predetermined time, and then removed. Then, the mouse was kept for predetermined days and the level of the antigen-specific cellular immunity was evaluated. After predetermined days from the application of the sample, the spleen was isolated and a spleen cell suspension was prepared. Spleen cells (3×10^6 cells/well) and the antigen peptide (100 μM) together with the culturing medium were placed into a well of an ELISPOT plate on which an anti-mouse IFN-γ antibody had been immobilized. The plate was cultured for 20 hours under the condition of 37° C. and 5% CO2. The number of the spots representing IFN-γ-producing cells (spot number/3×10^6 cells) was evaluated by the ELISPOT method.
The amount of administration of the tape preparation was set to 0.7 cm^2 as described above, the number of administrations was (24 hr/week)×once, and extraction of the spleen was carried out 6 days after the administration. The mouse used for the experiment was a genetically modified mouse by which cellular immunity induction caused by HLA-A*0201 type MHC-restricted peptide can be evaluated.
In Example 8, administration was carried out on skin that was injured with a microcutter (MICRO FEATHER No. 7330G, manufactured by Feather Safety Razor Co., Ltd.).

Row | Structure (SMILES) | Promotion of cellular immunity induction by acid as second cellular immunity induction promoter
1 | CCCCCCCCCCCC(=O)O [lauric acid] | particularly effective
2 | CCCCCCCCCCCCCCCCCC(=O)O [stearic acid] | effective
3 | CC(O)C(=O)O (stereo not drawn) [lactic acid] | particularly effective
4 | CCCCCCCC/C=C\CCCCCCCC(=O)O [oleic acid] | particularly effective
5 | CCCCCCCCCC(=O)O [decanoic acid] | effective
6 | CC(C)CCCCCCCCCCCCCCC(=O)O [isostearic acid] | particularly effective
7 | CCCCCCCCCCCCCC(=O)O [myristic acid] | particularly effective
8 | CCCCCCCCCCCCCCCC(=O)O [palmitic acid] | effective
9 | CCCCCCCC(=O)O [octanoic acid] | effective

Reference: US10195258B2, “Tape preparation of WT1 peptide cancer vaccine for transdermal administration” (NITTO DENKO CORPORATION, priority 2013, dated 2019)
